Assay results taken from patent US20170157228A1, “Immunogenic Polypeptide Composed of HLA-B7 Restricted Tumor Antigen-Derived Optimized Cryptic Peptides, and Uses Thereof” (VAXON BIOTECH, priority 2014, published 2017).
“Also recorded” adds a separate entry of the source.

How the values were obtained:
[1] = system: MAGE-A antigens / tumour cells; conditions: recognition of cells loaded with MAGE-A273A6, MAGE-A273I6, MAGE-A273V6; cited from earlier work
[2] = system: HLA-B*0702 transgenic mice; test: CTL induction in vivo in HLA-B*0702 transgenic mice, ex vivo IFNγ ELISpot of spleen T cells; conditions: for result versus the inverted dipeptide sequence, in terms of number of responding mice: dipeptide vaccination twice at 2 weeks interval, response against optimized and cognate native peptides; for mice responding to at least one native peptide / recognition of each native peptide in vaccinated mice: after two vaccinations with the polypeptide
Protocol: Transgenic Mice. The HLA-B7 H-2 class-I knockout mice were previously described (Rohrlich et al, 2003) and kindly provided by F. Lemonnier (Institut Pasteur, Paris, France).
CTL Induction in vivo in HLA-B*0702 Transgenic Mice. HLA-B*0702 transgenic mice were vaccinated subcutaneously at the base of the tail with 200 μg of optimized dipeptides or 400 μg of Vbx-016 in association with the HV core T13L helper (150 μg) helper peptide and emulsified in Incomplete Freund Adjuvant (IFA) or Montanide ISA51VG (Seppic, Castres, France) twice at two weeks interval.
Seven days after the last vaccination, spleens were removed and T cells were isolated by Ficoll centrifugation and tested ex vivo for the recognition of 10 μM of either the native or optimized peptides. Positive control was Concanavalin A and negative control was medium alone. All conditions were tested in quadriplicates. IFNγ producing T cells was quantified by ELISpot using the Diaclone Kit Murine IFNγ ELISpot.
An immune response was considered positive when there was 1) more than 10 spots difference/10^6 cells between the negative control and the tested peptide and 2) a statistically significant difference between these two groups with T Test (p<0.05).
Each dipeptide was used to vaccinate HLA-B*0702 transgenic mice twice at 2 weeks interval and tested for its capacity to induce an immune response against both optimized peptides and their cognate native counterparts. Dipeptides are described in table 2. In each experiment, the best combination is highlighted in grey.
To evaluate if the Vbx-016 (SEQ ID No: 23) determined in the dipeptidic experiments is optimum, HLA-B*0702 transgenic mice were vaccinated subcutaneously at the base of the tail with 400 μg of Vbx-016 and 150 μg of the HBV core T13L helper peptide emulsified in Incomplete Freund Adjuvant (IFA) or Montanide ISA51VG (Seppic, Castres, France) twice at two weeks interval.

[3] = system: human PBMC from healthy HLA-B*0702 donors; test: Generation of CTL from human PBMC, IFNγ ELISpot with peptide-loaded T2-B7 cells; assay type: cell-based; conditions: for processing of the dipeptide and recognition of optimized and cognate native peptides by induced CTLs: PBMC culture from healthy human donor stimulated with dipeptide; for CTL immune response induced by the polypeptide: PBMC culture from HLA-B*0702 healthy donor
Protocol: Cells. HLA-B*0702 transfected human T2-B7 cells were previously described (Rohrlich et al, 2003). Cells were grown in penicillin streptomycin FCS 20% supplemented RPMI1640 culture medium.
Generation of CTL from human PBMC. PBMC were collected by leukapheresis from healthy HLA-B*0702 volunteers. Dendritic cells (DC) were produced from adherent cells cultured for seven days with 500 IU/ml GM-CSF and 500 IU/ml IL-4, in complete synthetic medium (AIMV). On day 6, DCs were pulsed with 10 μM of polypeptides overnight. On day 7, CD8+ cells were purified by negative selection with CD8 Dynabeads Untouched Human CD8. CD8+ cells (2×10^5)+CD8− cells (6×10^4) were stimulated with 3×10^4 peptide-pulsed DC in AIMV medium supplemented with 1000 IU/ml IL-6 and 5 IU/ml IL-12, 1 μg/ml anti-CD40 and 500 IU/ml IFNγ in round-bottomed 96-well plates.
From day 7, cultures were restimulated weekly with peptide-loaded DC in the presence of 20 IU/ml IL-2 and 10 ng/ml IL-7, 1 μg/ml anti-CD40 and 500 IU/ml IFNγ.
After the third restimulation, CD8 cells were maintained in AIMV supplemented with 20 IU/ml IL-2 during 7 days. Cultures were starved during one night with AIMV and then were tested in an IFNγ ELISpot assay.
IFNγ ELISpot Assay. For one culture of 96 wells, four pools of 24 wells were collected, CD8 cells were counted and 50 000 CD8 per well were dispatched on the ELISpot plate with 25 000 T2B7 loaded eiher with 10 μM of each native monopeptide or with 10 μM of modified monopeptides composing the polypeptide. Eight replicates of each condition were performed. Positive control was Phytohaemagglutinin A and negative control was T2B7 loaded with an irrelevant peptide not able to bind HLA-B7 molecules.
To evaluate if the junction present in the polypeptide CEA188L9/TERT444A1/MAGE273L9/HER-2/neu246A1 validated in transgenic mice are processed efficiently in humans, human PBMC were stimulated with each dipeptide (CEA188L9/TERT444A1, TERT444A1/MAGE273L9 and MAGE273L9/HER-2/neu246A1) according to the protocol described in the methods. Recognition of the cognate native peptides was evaluated by measuring specific IFNγ producing cells from the CD8+ stimulated by the dipeptide, divided in 4 pools for the test.

For GPRALVETL (7M1M), the “MAGE-A antigens targeted by elicited CTLs” value [1] is listed as “targeted six MAGE-A antigens (-A1, -A2, -A3, -A4, -A6, and -A12)”.

For GPRALVETLAPKHSDCLA (7M1HN3M), the “result versus the inverted dipeptide sequence, in terms of number of responding mice” value [2] was “better results than the corresponding inverted sequences; also recorded: better results than the inverted sequence” and the “processing of the dipeptide and recognition of optimized and cognate native peptides by induced CTLs” value (“processing” for short) [3] was “efficiently processed in vitro in humans”.

For GPRALVETLSPRLQLSNL (7M1C1M), the “result versus the inverted dipeptide sequence, in terms of number of responding mice” value [2] was “the same results”.

For SPRLQLSNLGPRALVETL (7C1M1M), the “result versus the inverted dipeptide sequence, in terms of number of responding mice” value [2] was “the same results”.

In the case of APRRLVQLLGPRALVETL (7T5M1M), the “result versus the inverted dipeptide sequence, in terms of number of responding mice” value [2] is reported as “better results than the corresponding inverted sequences; also recorded: better results than the inverted sequence” and the “processing” value [3] is reported as “efficiently processed in vitro in humans”.

With SPRLQLSNLAPKHSDCLA (7C1HN3M) the “result versus the inverted dipeptide sequence, in terms of number of responding mice” value [2] was “better results than the corresponding inverted sequences; also recorded: better results than the inverted sequence”.

With SPRLQLSNLAPRRLVQLL (7C1T5M) the “result versus the inverted dipeptide sequence, in terms of number of responding mice” value [2] was “better results than the corresponding inverted sequences; also recorded: better results than the inverted sequence” and the “processing” value [3] was “efficiently processed in vitro in humans”.

With APRRLVQLLAPKHSDCLA (7T5HN3M) the “result versus the inverted dipeptide sequence, in terms of number of responding mice” value [2] was “better results than the corresponding inverted sequences; also recorded: better results than the inverted sequence”.

In the case of “SPRLQLSNLAPRRLVQLLGPRALVETLAPKHSDCLA [Vbx-016, polypeptide of four optimized cryptic peptides targeting TERT, HER-2/neu, MAGE and CEA for HLA-B7 patients]”, the “mice responding to at least one native peptide” value [2] is reported as “all mice respond to at least one native peptide”, the “recognition of each native peptide in vaccinated mice” value [2] is reported as “each native peptide was recognized at least once in one vaccinated mouse” and the “mice responding to at least one native peptide” value ([2]; listed as SEQ ID No: 23) is reported as “all mice responded to at least one native peptide”. The “recognition of each native peptide in vaccinated mice” value ([2]; listed as SEQ ID No: 23) was “all the native peptides were recognized at least once in one vaccinated mouse”, the “Number of responding mice/total number of mice” value ([2]; recognition of CEA188, Helper + adjuvant (IFA or montanide), pooled) was 13/14 and the “Number of responding mice/total number of mice” value ([2]; recognition of CEA188, Vbx016 + helper + IFA, two vaccinations, T-test <0.05) was 8/9. The “Number of responding mice/total number of mice” value ([2]; recognition of CEA188, Vbx016 + helper + Montanide, two vaccinations, T-test <0.05) was 5/5, the “Number of responding mice/total number of mice” value ([2]; recognition of CEA188L9, Helper + adjuvant (IFA or montanide), pooled) was 13/14 and the “Number of responding mice/total number of mice” value ([2]; recognition of CEA188L9, Vbx016 + helper + IFA) was 8/9. The “Number of responding mice/total number of mice” value ([2]; recognition of CEA188L9, Vbx016 + helper + Montanide) was 5/5, the “Number of responding mice/total number of mice” value ([2]; recognition of HER-2Neu246, Helper + adjuvant (IFA or montanide), pooled) was 1/14 and the “Number of responding mice/total number of mice” value ([2]; recognition of HER-2Neu246, Vbx016 + helper + IFA) was 1/9. The “Number of responding mice/total number of mice” value ([2]; recognition of HER-2Neu246, Vbx016 + helper + Montanide) was 0/5, the “Number of responding mice/total number of mice” value ([2]; recognition of HER-2Neu246A1, Helper + adjuvant (IFA or montanide), pooled) was 2/14 and the “Number of responding mice/total number of mice” value ([2]; recognition of HER-2Neu246A1, Vbx016 + helper + IFA) was 2/9. For the same sequence, the “Number of responding mice/total number of mice” value ([2]; recognition of HER-2Neu246A1, Vbx016 + helper + Montanide) was 0/5, the “Number of responding mice/total number of mice” value ([2]; recognition of MageA273A6, Helper + adjuvant (IFA or montanide), pooled) was 2/14 and the “Number of responding mice/total number of mice” value ([2]; recognition of MageA273A6, Vbx016 + helper + IFA) was 2/9. The “Number of responding mice/total number of mice” value ([2]; recognition of MageA273A6, Vbx016 + helper + Montanide) was 0/5, the “Number of responding mice/total number of mice” value ([2]; recognition of MageA273I6, Helper + adjuvant (IFA or montanide), pooled) was 3/14 and the “Number of responding mice/total number of mice” value ([2]; recognition of MageA273I6, Vbx016 + helper + IFA) was 1/9. The “Number of responding mice/total number of mice” value ([2]; recognition of MageA273I6, Vbx016 + helper + Montanide) was 2/5, the “Number of responding mice/total number of mice” value ([2]; recognition of MageA273L9, Helper + adjuvant (IFA or montanide), pooled) was 12/14 and the “Number of responding mice/total number of mice” value ([2]; recognition of MageA273L9, Vbx016 + helper + IFA) was 7/9. For the same sequence, the “Number of responding mice/total number of mice” value ([2]; recognition of MageA273L9, Vbx016 + helper + Montanide) was 5/5, the “Number of responding mice/total number of mice” value ([2]; recognition of MageA273V6, Helper + adjuvant (IFA or montanide), pooled) was 2/14 and the “Number of responding mice/total number of mice” value ([2]; recognition of MageA273V6, Vbx016 + helper + IFA) was 1/9. The “Number of responding mice/total number of mice” value ([2]; recognition of MageA273V6, Vbx016 + helper + Montanide) was 1/5, the “Number of responding mice/total number of mice” value ([2]; recognition of Tert444, Helper + adjuvant (IFA or montanide), pooled) was 12/14 and the “Number of responding mice/total number of mice” value ([2]; recognition of Tert444, Vbx016 + helper + IFA) was 8/9. For the same sequence, the “Number of responding mice/total number of mice” value ([2]; recognition of Tert444, Vbx016 + helper + Montanide) was 4/5, the “Number of responding mice/total number of mice” value ([2]; recognition of Tert444A1, Helper + adjuvant (IFA or montanide), pooled) was 14/14 and the “Number of responding mice/total number of mice” value ([2]; recognition of Tert444A1, Vbx016 + helper + IFA) was 9/9. For the same sequence, the “Number of responding mice/total number of mice” value ([2]; recognition of Tert444A1, Vbx016 + helper + Montanide) was 5/5, the “Number of responding mice/total number of mice” value ([2]; recognition of Vbx-016, Helper + adjuvant (IFA or montanide), pooled) was 14/14 and the “Number of responding mice/total number of mice” value ([2]; recognition of Vbx-016, Vbx016 + helper + IFA) was 9/9. The “Number of responding mice/total number of mice” value ([2]; recognition of Vbx-016, Vbx016 + helper + Montanide) was 4/4, the “Number of responding mice/total number of mice” value ([2]; response to two or more native epitopes, Helper + adjuvant (IFA or montanide), pooled, listed as SEQ ID No: 23) was “a large majority of vaccinated mice responded to two or more cognate native peptides” and the “Number of responding mice/total number of mice” value ([2]; response to two or more native epitopes, Vbx016 + helper + IFA) was 8/9. The “Number of responding mice/total number of mice” value ([2]; response to two or more native epitopes, Vbx016 + helper + Montanide) was 5/5, the “Number of responding mice/total number of mice” value ([2]; response to two or more native epitopes, column Helper + adjuvant (IFA or montanide), pooled) was 13/14 and the “Number of responding mice/total number of mice” value ([2]; response to two or more native epitopes, column Helper + adjuvant (IFA or montanide), pooled, listed as Vbx016) was 13/14. For the same sequence, the “CTL immune response induced by the polypeptide” value [3] was “A polyspecific response was induced and several native peptides were recognized by the induced CTLs” and the “CTL immune response induced by the polypeptide” value ([3]; listed as SEQ ID No: 23) was “polyspecific CTLs immune response; also recorded: several native peptides were recognized; also recorded: induces a specific CD8^+ T cells response against at least one and usually two or more peptides”.
